# Laboratory results taken from article PMC5660230, “Combined x-ray crystallography and computational modeling approach to investigate the Hsp90 C-terminal peptide binding to FKBP51” (Scientific Reports, 2017).
# Entries after “also recorded” stand apart in the source; their conditions may differ. Residues, ends and D or L forms follow the SMILES beside them.
# Assays:
# FKBP51 (TPR domain) = target: T1, FKBP51 (TPR domain) (Homo sapiens, UniProt Q13451); experiment: Differential scanning fluorimetry (DSF), dissociation constant of FKBP51-C90 complex under thermal denaturation; assay type: binding
# T1 construct: FKBP51 full length DNA (IMAGE cDNA clone: 5753397 5′) was PCR amplified; GST (N, cleaved yes); made in house; host or cells: E. coli BL21
# T1 sequence (Q13451 1-457): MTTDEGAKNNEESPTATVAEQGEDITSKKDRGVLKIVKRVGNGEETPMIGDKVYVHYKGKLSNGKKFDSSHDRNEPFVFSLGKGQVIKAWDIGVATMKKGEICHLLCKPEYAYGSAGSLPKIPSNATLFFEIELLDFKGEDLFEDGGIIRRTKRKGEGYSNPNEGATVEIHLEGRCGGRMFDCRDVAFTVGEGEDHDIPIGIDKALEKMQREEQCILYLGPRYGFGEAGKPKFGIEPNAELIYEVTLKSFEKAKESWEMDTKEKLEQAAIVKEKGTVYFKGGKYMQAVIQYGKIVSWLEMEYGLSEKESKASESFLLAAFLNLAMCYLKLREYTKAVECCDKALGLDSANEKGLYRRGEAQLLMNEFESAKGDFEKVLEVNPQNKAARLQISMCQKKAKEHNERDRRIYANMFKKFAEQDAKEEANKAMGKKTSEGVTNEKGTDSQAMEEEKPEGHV
# Description: (§1) Differential scanning fluorimetry was performed using Bio-Rad CFX96 qPCR following a well-established protocol. Briefly, 25 µl of solution containing purified FKBP51 at a concentration of 0.1 mg/ml, 5X SYPRO orange (Life Technologies), and Hsp90 C-terminal peptide ranging from 0–500 µM in 0.5X PBS was transferred to a 96-well PCR plate in triplicate. The plate was centrifuged, sealed and the fluorescence was measured using the FRET channel between 20 and 80 °C with an increment of 0.2 °C in each cycle. The melting temperature was determined from the first derivative peaks of the melting curve using Bio-Rad CFX96 manager software. Further, the dissociation constant of the complex between FKBP51 and C90 was determined by fitting the resulting data using single site ligand binding model[35] with the bottom (T1) and top (T2) temperatures fitting to 43.8 and 48.5 °C, respectively. The concentration of FKBP51 (2 µM) was used as the value of the constant P. The fitting was performed using GraphPad Prism, version 7.02. Additionally, we incubated the FKBP51 with 200 µM of control peptide (DDDDDDDDDD) in a similar way.
# FKBP51 = experiment: Differential scanning fluorimetry (DSF), melting temperature shift of FKBP51; assay type: binding, human; conditions: FKBP51 0.1 mg/ml, 5X SYPRO orange, 0.5X PBS
# Description: as §1
Compound,"Kd (FKBP51 (TPR domain); DSF under thermal denaturation, full-length FKBP51 0.1 mg/ml (2 µM), 5X SYPRO orange, 0.5X PBS, C90 0–250 µM / 0–500 µM (method), triplicate, 20–80 °C, 0.2 °C increments, Tm by first derivative, single site ligand binding model, T1 43.8 and T2 48.5 °C, R^2 0.99)",dissociation constant compared with reported FKBP38-MEEVD peptide (FKBP51 (TPR domain); DSF value of FKBP51-C90 complex compared with literature value of FKBP38-MEEVD peptide),"ΔTm (first melting point) (FKBP51; C90 250 µM vs 0 µM, triplicate, first derivative of melting curve)","first melting point of FKBP51 in presence of peptide (FKBP51; C90 250 µM, triplicate, without peptide 44 °C / 43.8 °C)","second melting point of FKBP51 in presence of peptide (FKBP51; C90 250 µM, triplicate, without peptide 58.6 °C / 57.8 °C)",change in melting point of FKBP51 (control peptide) (FKBP51; control peptide 200 µM vs 0 µM)
CSCC[C@H](NC(=O)[C@H](CCCNC(=N)N)NC(=O)[C@H](CO)NC(=O)[C@@H](NC(=O)[C@H](CC(=O)O)NC(=O)[C@H](Cc1c[nH]cn1)NC(=O)[C@H](Cc1c[nH]cn1)NC(=O)[C@H](Cc1c[nH]cn1)NC(=O)[C@H](Cc1c[nH]cn1)NC(=O)[C@H](Cc1c[nH]cn1)NC(=O)[C@@H](N)Cc1c[nH]cn1)[C@@H](C)O)C(=O)N[C@@H](CCC(=O)O)C(=O)N[C@@H](CCC(=O)O)C(=O)N[C@H](C(=O)N[C@@H](CC(=O)O)C(=O)O)C(C)C [C90] (H-HHHHHHDTSRMEEVD-OH),70 ± 32 µM,very similar to the reported dissociation constant of FKBP38-MEEVD peptide,4.8 °C,48.6 °C,without much change in the second melting point; also recorded: without affecting the second melting point,
"H-DDDDDDDDDD-OH [control peptide, reference compound]",,,,,,did not lead to any change in the melting point of FKBP51
